Laboratory results reported in patent US5183883A, “Conjugate of adriamycin and cyclodextrin” (Mercian Corporation, priority 1990, dated 1993).
≈ marks a conversion by molar mass, not a printed value. Where a name gives a salt, the structure may show the parent alone. Read-outs that look alike come from different tables or passages of the source.

Experiments:
L1210 leukemia = test: Test of anti-cancer activity to L1210 leukemia mice; type: in vivo, CDF1 mice; conditions: i.p., 10 days; for Survived mice/test mice: observed 60 days
Experimental: 1×10^5 L1210 leukemia cells were inoculated into CDF1 mice intraperitoneally, and 24 hours later, the aqueous solution of the compound of this invention was intraperitoneally administered successively over 10 days. Test groups, each consisting of 6 mice, were fed and observed for 60 days, and percent prolongation of life (T/C; %) was found.

Toxicity test LD50 = type: in vivo; conditions: mice, intravenously administered once
Description: LD50 given when the adriamycin derivatives of this invention were intravenously administered once in mice is as follows.

[1] = Sustained release test (adriamycin liberated in phosphoric acid buffer physiological saline); type: physicochemical; conditions: 1 mg in 0.0067 M phosphoric acid buffer physiological saline, initial pH=7.36-7.37, 37° C., HPLC
Experimental: One milligram of each of the adriamycin derivatives obtained in Examples 1, 2, 3, 4, 5 and 6 to be described later was dissolved in 0.0067 M phosphoric acid buffer physiological saline solution made by Bioproducts, Inc. (initial pH=7.36-7.37), and the solution was kept at 37° C. The amount of adriamycin liberated in the solution was analyzed by HPLC [column=YMC Pack A-312 S-5 120A ODS; mobile phase=0.05M ammonium formate buffer (pH=4.0):- acetonitrile=7:4, flow rate=1 ml/min; measuring wavelength=254 nm; retention time of adriamycin under the present conditions=3.8 minutes].
Consequently, a 50 % released time of adriamycin from the adriamycin derivatives is as follows, and sustained release was confirmed.

mouse leukemia cells = test: Cytotoxicity test; conditions: for Cytotoxicity, IC50: 48 hours, 37° C., RPMI1640 with 10% horse serum, trypan blue
Experimental: 5×10^4 cells/ml of mouse leukemia cells were inoculated in a RPMI1640 culture medium containing 10% horse serum, and the compound of the present invention was added to this such that the final concentration became 0.001 to 10.0 μg/ml. Cultivation was conducted in a carbon dioxide gas incubator (air containing 5% carbon dioxide gas) at 37° C. for 48 hours.

[2] = intravenous injection in mice; Collection of Medicaments in Japan, 1989; cited from earlier work
[3] = 9.77 mg/kg/day (2.5 as adriamycin)
[4] = 19.53 mg/kg/day (5.0 as adriamycin)
[5] = 39.06 mg/kg/day (10.0 as adriamycin)
[6] = 78.13 mg/kg/day (20.0 as adriamycin)
[7] = 156.25 mg/kg/day (40.0 as adriamycin)
[8] = 9.54 mg/kg/day (2.5 as adriamycin)
[9] = 13.36 mg/kg/day (3.5 as adriamycin)
[10] = 19.08 mg/kg/day (5.0 as adriamycin)
[11] = 26.72 mg/kg/day (7.0 as adriamycin)
[12] = 38.17 mg/kg/day (10.0 as adriamycin)

adriamycin-phthalic acid-γ-cyclodextrin conjugate [APC]
Anti-cancer activity, T/C (%) (L1210 leukemia; [3]): 164%
Survived mice/test mice (L1210 leukemia; [3]): 0/6
Anti-cancer activity, T/C (%) (L1210 leukemia; [4]): 234%
Survived mice/test mice (L1210 leukemia; [4]): 0/6
Anti-cancer activity, T/C (%) (L1210 leukemia; [5]): 468%
Survived mice/test mice (L1210 leukemia; [5]): 2/6
Anti-cancer activity, T/C (%) (L1210 leukemia; [6]): 475%
Survived mice/test mice (L1210 leukemia; [6]): 0/6
Anti-cancer activity, T/C (%) (L1210 leukemia; [7]): 143%
Survived mice/test mice (L1210 leukemia; [7]): 0/6
LD50 (Toxicity test LD50; as derivative): 555 mg/kg
LD50 as adriamycin (Toxicity test LD50; calculated as adriamycin): 147 mg/kg as adriamycin
50 % released time of adriamycin from the adriamycin derivatives [1]: about 20 hours
Cytotoxicity, IC50 (mouse leukemia cells): 0.32 mg/L

COc1cccc2c1C(=O)c1c(O)c3c(c(O)c1C2=O)C[C@@](O)(C(=O)CO)C[C@@H]3O[C@H]1C[C@H](N)[C@H](O)[C@H](C)O1 [Adriamycin, adriamycin]
LD50 [2]: 9.8 mg/kg
IC50 (mouse leukemia cells; Mus musculus, 48 h, read-out: Cytotoxicity, IC50): 0.058 mg/L (≈ 0.107 µM)

COc1cccc2c1C(=O)c1c(O)c3c(c(O)c1C2=O)C[C@@](O)(C(=O)COC(=O)c1ccccc1C(=O)OC[C@H]1O[C@@H]2O[C@H]4[C@H](O)[C@@H](O)[C@@H](O[C@H]5[C@H](O)[C@@H](O)[C@@H](O[C@H]6[C@H](O)[C@@H](O)[C@@H](O[C@H]7[C@H](O)[C@@H](O)[C@@H](O[C@H]8[C@H](O)[C@@H](O)[C@@H](O[C@H]9[C@H](O)[C@@H](O)[C@@H](O[C@H]%10[C@H](O)[C@@H](O)[C@@H](O[C@H]1[C@H](O)[C@H]2O)O[C@@H]%10CO)O[C@@H]9CO)O[C@@H]8CO)O[C@@H]7CO)O[C@@H]6CO)O[C@@H]5CO)O[C@@H]4CO)C[C@@H]3O[C@H]1C[C@H](N)[C@H](O)[C@H](C)O1 [Example 6-APC, adriamycin (14-position)-phthalic acid-(6-position) γ-cyclodextrin conjugate]
50 % released time of adriamycin from the adriamycin derivatives [1]: about 45 hours
Cytotoxicity, IC50 (mouse leukemia cells): 0.49 mg/L

COc1cccc2c1C(=O)c1c(O)c3c(c(O)c1C2=O)C[C@@](O)(C(=O)COC(=O)CCC(=O)OC[C@H]1O[C@@H]2O[C@H]4[C@H](O)[C@@H](O)[C@@H](O[C@H]5[C@H](O)[C@@H](O)[C@@H](O[C@H]6[C@H](O)[C@@H](O)[C@@H](O[C@H]7[C@H](O)[C@@H](O)[C@@H](O[C@H]8[C@H](O)[C@@H](O)[C@@H](O[C@H]9[C@H](O)[C@@H](O)[C@@H](O[C@H]%10[C@H](O)[C@@H](O)[C@@H](O[C@H]1[C@H](O)[C@H]2O)O[C@@H]%10CO)O[C@@H]9CO)O[C@@H]8CO)O[C@@H]7CO)O[C@@H]6CO)O[C@@H]5CO)O[C@@H]4CO)C[C@@H]3O[C@H]1C[C@H](N)[C@H](O)[C@H](C)O1 [Example 6-ASC, adriamycin (14-position)-succinic acid (6-position) γ-cyclodextrin conjugate]
50 % released time of adriamycin from the adriamycin derivatives [1]: about 3 hours
Cytotoxicity, IC50 (mouse leukemia cells): 0.21 mg/L

COc1cccc2c1C(=O)c1c(O)c3c(c(O)c1C2=O)C[C@@](O)(C(=O)COC(=O)C1CCCCC1C(=O)OC[C@H]1O[C@@H]2O[C@H]4[C@H](O)[C@@H](O)[C@@H](O[C@H]5[C@H](O)[C@@H](O)[C@@H](O[C@H]6[C@H](O)[C@@H](O)[C@@H](O[C@H]7[C@H](O)[C@@H](O)[C@@H](O[C@H]8[C@H](O)[C@@H](O)[C@@H](O[C@H]9[C@H](O)[C@@H](O)[C@@H](O[C@H]%10[C@H](O)[C@@H](O)[C@@H](O[C@H]1[C@H](O)[C@H]2O)O[C@@H]%10CO)O[C@@H]9CO)O[C@@H]8CO)O[C@@H]7CO)O[C@@H]6CO)O[C@@H]5CO)O[C@@H]4CO)C[C@@H]3O[C@H]1C[C@H](N)[C@H](O)[C@H](C)O1 (some centres unmarked) [Example 6-ACC, adriamycin (14-position)-ciscyclohexanedicarboxylic acid-(6-position) γ-cyclodextrin conjugate]
50 % released time of adriamycin from the adriamycin derivatives [1]: > 70 h
Cytotoxicity, IC50 (mouse leukemia cells): 2.07 mg/L

COc1cccc2c1C(=O)c1c(O)c3c(c(O)c1C2=O)C[C@@](O)(C(=O)CO)C[C@@H]3O[C@H]1C[C@H](N)[C@H](O)[C@H](C)O1 [Adriamycin hydrochloride, reference compound]
Anti-cancer activity, T/C (%) (L1210 leukemia; 0.31 mg/kg/day): 170%
Survived mice/test mice (L1210 leukemia; 0.31 mg/kg/day): 0/6
Anti-cancer activity, T/C (%) (L1210 leukemia; 0.63 mg/kg/day): 218%
Survived mice/test mice (L1210 leukemia; 0.63 mg/kg/day): 0/6
Anti-cancer activity, T/C (%) (L1210 leukemia; 1.25 mg/kg/day): 255%
Survived mice/test mice (L1210 leukemia; 1.25 mg/kg/day): 0/6
Anti-cancer activity, T/C (%) (L1210 leukemia; 2.50 mg/kg/day): 177%
Survived mice/test mice (L1210 leukemia; 2.50 mg/kg/day): 0/6
Anti-cancer activity, T/C (%) (L1210 leukemia; 5.00 mg/kg/day): 132%
Survived mice/test mice (L1210 leukemia; 5.00 mg/kg/day): 0/6

adriamycin-succinic acid-γ-cyclodextrin conjugate [ASC]
Anti-cancer activity, T/C (%) (L1210 leukemia; [8]): 207%
Survived mice/test mice (L1210 leukemia; [8]): 0/6
Anti-cancer activity, T/C (%) (L1210 leukemia; [9]): 545%
Survived mice/test mice (L1210 leukemia; [9]): 3/6
Anti-cancer activity, T/C (%) (L1210 leukemia; [10]): 552%
Survived mice/test mice (L1210 leukemia; [10]): 3/6
Anti-cancer activity, T/C (%) (L1210 leukemia; [11]): 193%
Survived mice/test mice (L1210 leukemia; [11]): 0/6
Anti-cancer activity, T/C (%) (L1210 leukemia; [12]): 159%
Survived mice/test mice (L1210 leukemia; [12]): 0/6

COc1cccc2c1C(=O)c1c(O)c3c(c(O)c1C2=O)C[C@@](O)(C(=O)COC(=O)c1cc2ccccc2cc1C(=O)OC[C@H]1O[C@@H]2O[C@H]4[C@H](O)[C@@H](O)[C@@H](O[C@H]5[C@H](O)[C@@H](O)[C@@H](O[C@H]6[C@H](O)[C@@H](O)[C@@H](O[C@H]7[C@H](O)[C@@H](O)[C@@H](O[C@H]8[C@H](O)[C@@H](O)[C@@H](O[C@H]9[C@H](O)[C@@H](O)[C@@H](O[C@H]%10[C@H](O)[C@@H](O)[C@@H](O[C@H]1[C@H](O)[C@H]2O)O[C@@H]%10CO)O[C@@H]9CO)O[C@@H]8CO)O[C@@H]7CO)O[C@@H]6CO)O[C@@H]5CO)O[C@@H]4CO)C[C@@H]3O[C@H]1C[C@H](N)[C@H](O)[C@H](C)O1 [Example 6-ANC, adriamycin (14-position)-naphthalenedicarboxylic acid-(6-position) γ-cyclodextrin conjugate]
50 % released time of adriamycin from the adriamycin derivatives [1]: about 65 hours
Cytotoxicity, IC50 (mouse leukemia cells): 0.79 mg/L
